Results published in patent US12358960B2, “Selective targeting of ubiquitin- and ubiquitin-like E1-activating enzymes by structurally-stabilized peptides” (Dana-Farber Cancer Institute, Inc., priority 2019, dated 2025).
Bridge positions count the residues as written; N and C are the ends. Square brackets hold non-standard residues; d marks the D form. Peptide text beside a SMILES is read from it. R8 = C=CCCCCCC[C@@](C)(N)C(=O)O; S5 = C=CCCC[C@](C)(N)C(=O)O; Nle = CCCC[C@H](N)C(=O)O

Tests used:
[1] = biological target: T1, UBA1 (Homo sapiens, UniProt P22314); assay: Streptavidin-biotin pull-down with recombinant protein; format: binding; conditions: biotinylated peptide, silver stain
T1 sequence (P22314 1-1058): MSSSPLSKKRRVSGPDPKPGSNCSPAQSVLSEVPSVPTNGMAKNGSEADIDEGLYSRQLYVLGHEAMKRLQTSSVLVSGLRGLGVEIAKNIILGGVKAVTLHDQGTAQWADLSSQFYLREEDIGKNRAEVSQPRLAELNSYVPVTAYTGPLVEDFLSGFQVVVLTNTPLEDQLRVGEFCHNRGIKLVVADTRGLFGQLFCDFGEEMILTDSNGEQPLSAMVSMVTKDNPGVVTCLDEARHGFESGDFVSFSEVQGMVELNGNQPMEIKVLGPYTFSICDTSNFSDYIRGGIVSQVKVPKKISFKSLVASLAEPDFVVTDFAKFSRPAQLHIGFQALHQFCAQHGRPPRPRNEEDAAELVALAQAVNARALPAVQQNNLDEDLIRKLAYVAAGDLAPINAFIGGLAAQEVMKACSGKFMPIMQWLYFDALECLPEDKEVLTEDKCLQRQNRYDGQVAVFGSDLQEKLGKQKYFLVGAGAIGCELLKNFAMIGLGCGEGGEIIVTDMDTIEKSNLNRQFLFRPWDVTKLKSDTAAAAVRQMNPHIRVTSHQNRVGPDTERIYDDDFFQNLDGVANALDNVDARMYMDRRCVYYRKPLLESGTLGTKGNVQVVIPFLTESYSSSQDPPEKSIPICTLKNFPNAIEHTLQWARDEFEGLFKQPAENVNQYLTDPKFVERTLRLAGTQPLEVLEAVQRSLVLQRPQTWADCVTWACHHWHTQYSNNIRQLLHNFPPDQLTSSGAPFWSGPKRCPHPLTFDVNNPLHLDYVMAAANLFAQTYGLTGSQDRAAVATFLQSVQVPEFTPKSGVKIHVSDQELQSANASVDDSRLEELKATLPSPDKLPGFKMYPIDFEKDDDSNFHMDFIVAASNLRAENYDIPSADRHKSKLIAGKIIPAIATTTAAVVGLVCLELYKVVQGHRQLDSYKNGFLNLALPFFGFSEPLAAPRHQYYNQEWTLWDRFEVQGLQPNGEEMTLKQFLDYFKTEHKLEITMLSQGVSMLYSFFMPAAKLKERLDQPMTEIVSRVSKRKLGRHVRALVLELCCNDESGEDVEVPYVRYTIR
Experimental: Streptavidin-biotin pull-down assays: For recombinant protein pull-downs, 10 pmol recombinant human UBA1 was incubated with 5 nmol C-terminally biotinylated SAH-UBE2A or DMSO vehicle control in a total volume of 1 mL binding buffer (50 mM NaCl, 20 mM HEPES, pH 7.4, 5 mM DTT) for 1.5 hours at 4° C. 30 μL of pre-equilibrated streptavidin agarose beads were then added and incubated for an additional 1.5 hours at 4° C. The beads were pelleted by centrifugation and washed three times with NP-40 buffer (20 mM HEPES, pH 7.4, 50 mM NaCl, 5 mM DTT, 0.5% [v/v] NP-40) before eluting the protein sample from the beads by heating at 70° C. for 10 min in 3×SDS loading buffer. Samples were subjected to electrophoresis and silver staining (Pierce 24612). […] Proteins were separated by SDS-PAGE gel electrophoresis and detected by western blot against UBE1 (Abcam ab34711). […] Conjugation of ubiquitin to E2 by E1 is monitored by conversion of free E2 (17 kDa) to E2˜ubiquitin conjugate (26 kDa). Quantitation of percent inhibition was calculated from densitometry of silver stain images. Error bars represent ±1 SEM calculated from three independent experiments.

[2] = test system: HeLa S100 lysate fraction, polyubiquitin chains; assay: Cellular lysate enzyme inhibition (ubiquitination) assay; format: biochemical; conditions: excess ubiquitin, ATP regeneration solution, vs vehicle
Experimental: Cellular Lysate Enzyme Inhibition Assays: Cellular lysate assays were performed with 1 mg/mL final concentration HeLa S100 lysate fraction and the indicated concentration of peptide or DMSO vehicle control in an assay buffer containing 1×ATP regeneration solution, 20 mM HEPES, 50 mM NaCl, 5 mM MgCl2, 2 mM DTT, 100 nM ubiquitin aldehyde, and a protease-phosphatase inhibitor cocktail at pH 7.4. Reactions were initiated by addition of ubiquitin to a final concentration of 100 μM and allowed to proceed for 30 minutes at room temperature, followed by quenching with non-reducing LDS loading buffer. Proteins were separated by SDS-PAGE gel electrophoresis and detected by western blot against polyubiquitin (Cell Signaling Technology CST3936).

CCCC[C@H](NC(C)=O)C(=O)N[C@@H](CO)C(=O)N[C@H](C(=O)N1CCC[C@H]1C(=O)N[C@]1(C)CCCCCCC=CCCC[C@@](C)(C(=O)N[C@@H](Cc2ccccc2)C(=O)N[C@@H](CCCCN)C(=O)N[C@@H](CCCNC(=N)N)C(=O)N[C@@H](CC(C)C)C(=O)N[C@@H](CCC(N)=O)C(N)=O)NC(=O)[C@H](CCCNC(=N)N)NC(=O)[C@H](CCCC)NC(=O)[C@H](CC(C)C)NC(=O)[C@H](CCCNC(=N)N)NC(=O)[C@H](CCCNC(=N)N)NC(=O)[C@H](CCCNC(=N)N)NC1=O)[C@@H](C)O [SAH-UBE2A-11, BSTPX1RRRLBRX2FKRLQ] (Ac-[Nle]STP[R8]RRRL[Nle]R[S5]FKRLQ-NH2; staple 5-12)
direct binding to recombinant UBA1, streptavidin capture [1]: direct binding of SAH-UBE2A to UBA1 | formation of polyubiquitin chains in HeLa cell cytoplasmic fraction [2]: dose-dependently inhibited formation of polyubiquitin chains
